PubChem BioAssay (NCI)
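The compound was tested at five concentrations on cells cultured in 96-well plates, with a 48-hour exposure period. Abbreviation: GI50, concentration required for 50% inhibition of growth. TGI denotes the concentration required for complete inhibition of growth.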

Experiments:
Assay in all cases: NCI tumour cell line growth inhibition, 48 h
[1] = test system: SN12C renal
[2] = test system: CCRF-CEM leukemia
[3] = test system: SK-OV-3 ovarian
[4] = test system: M14 melanoma
[5] = test system: SW-620 colon
[6] = test system: SNB-19 CNS
[7] = test system: NCI-H226 lung
[8] = test system: HCT-116 colon
[9] = test system: HL-60(TB) leukemia
[10] = test system: HOP-92 NSCLC
[11] = test system: PC-3 prostate
[12] = test system: UACC-62 melanoma
[13] = test system: SNB-75 CNS
[14] = test system: IGROV1 ovarian
[15] = test system: SF-539 CNS
[16] = test system: HS 578T breast
[17] = test system: HT29 colon
[18] = test system: TK-10 renal
[19] = test system: NCI-H460 lung
[20] = test system: U251 CNS
[21] = test system: NCI-H522 lung
[22] = test system: SF-268 CNS
[23] = test system: T-47D breast
[24] = test system: A549 NSCLC
[25] = test system: A498 renal
[26] = test system: SK-MEL-5 melanoma
[27] = test system: MOLT-4 leukemia
[28] = test system: MALME-3M melanoma
[29] = test system: SK-MEL-28 melanoma
[30] = test system: RXF 393 renal
[31] = test system: KM12 colon
[32] = test system: HCC-2998 colon
[33] = test system: BT-549 breast
[34] = test system: NCI-H23 lung
[35] = test system: DU-145 prostate
[36] = test system: SK-MEL-2 melanoma
[37] = test system: RPMI-8226 leukemia
[38] = test system: OVCAR-3 ovarian
[39] = test system: OVCAR-5 ovarian
[40] = test system: MCF7 breast
[41] = test system: HOP-62 NSCLC
[42] = test system: HCT-15 colon
[43] = test system: UO-31 renal
[44] = test system: LOX IMVI melanoma
[45] = test system: K-562 leukemia
[46] = test system: ACHN renal
[47] = test system: MDA-MB-435
[48] = test system: OVCAR-8 ovarian
[49] = test system: UACC-257 melanoma
[50] = test system: SF-295 CNS
[51] = test system: COLO 205 colon
[52] = test system: CAKI-1 renal
[53] = test system: NCI/ADR-RES ovarian
[54] = test system: MDA-MB-231 breast
[55] = test system: OVCAR-4 ovarian
[56] = test system: SR leukemia
[57] = test system: 786-0 renal

SMILES: COc1cc(C2=Nc3c/c(=C\c4c(O)[nH]c5ccc(Cl)cc45)ccc3=N2)cc(OC)c1OC
- GI50 [1]: 2.11 µM
- TGI [1]: 6.5 µM
- GI50 [2]: 2.29 µM
- TGI [2]: 8.55 µM
- GI50 [3]: 16.2 µM
- TGI [3]: 32.5 µM
- GI50 [4]: 1.71 µM
- TGI [4]: 3.83 µM
- GI50 [5]: 1.98 µM
- TGI [5]: 4.41 µM
- GI50 [6]: 4.55 µM
- TGI [6]: 13.5 µM
- GI50 [7]: 10.3 µM
- TGI [7]: 29.7 µM
- GI50 [8]: 1.56 µM
- TGI [8]: 3.54 µM
- GI50 [9]: 3.13 µM
- TGI [9]: 14.6 µM
- GI50 [10]: 0.444 µM
- TGI [10]: 6.35 µM
- GI50 [11]: 2.94 µM
- TGI [11]: 14.3 µM
- GI50 [12]: 1.94 µM
- TGI [12]: 7.97 µM
- GI50 [13]: 1.78 µM
- TGI [13]: 10.6 µM
- GI50 [14]: 5.46 µM
- TGI [14]: 20.3 µM
- GI50 [15]: 4 µM
- TGI [15]: 15.9 µM
- GI50 [16]: 1.69 µM
- TGI [16]: 5.86 µM
- GI50 [17]: 2.11 µM
- TGI [17]: 4.5 µM
- GI50 [18]: 5.76 µM
- TGI [18]: 17.4 µM
- GI50 [19]: 2.7 µM
- TGI [19]: 8.65 µM
- GI50 [20]: 1.79 µM
- TGI [20]: 3.91 µM
- GI50 [21]: 3.17 µM
- TGI [21]: 10.7 µM
- GI50 [22]: 1.93 µM
- TGI [22]: 3.78 µM
- GI50 [23]: 9.13 µM
- TGI [23]: 37.3 µM
- GI50 [24]: 2.87 µM
- TGI [24]: 10.7 µM
- GI50 [25]: 29.4 µM
- TGI [25]: > 100 µM
- GI50 [26]: 1.58 µM
- TGI [26]: 3.55 µM
- GI50 [27]: 2.43 µM
- TGI [27]: 12.9 µM
- GI50 [28]: 1.79 µM
- TGI [28]: 3.71 µM
- GI50 [29]: 3.2 µM
- TGI [29]: 12.7 µM
- GI50 [30]: 2.78 µM
- TGI [30]: 7.38 µM
- GI50 [31]: 3.09 µM
- TGI [31]: 12.2 µM
- GI50 [32]: 4.44 µM
- TGI [32]: 21.8 µM
- GI50 [33]: 2.51 µM
- TGI [33]: 9.94 µM
- GI50 [34]: 1.96 µM
- TGI [34]: 7.61 µM
- GI50 [35]: 2.34 µM
- TGI [35]: 5.19 µM
- GI50 [36]: 9.01 µM
- TGI [36]: 30.2 µM
- GI50 [37]: 2.04 µM
- TGI [37]: 5.77 µM
- GI50 [38]: 3.07 µM
- TGI [38]: 11.1 µM
- GI50 [39]: 12 µM
- TGI [39]: 38.8 µM
- GI50 [40]: 1.43 µM
- TGI [40]: 3.56 µM
- GI50 [41]: 1.95 µM
- TGI [41]: 4.09 µM
- GI50 [42]: 3.27 µM
- TGI [42]: 11.6 µM
- GI50 [43]: 2.96 µM
- TGI [43]: 16.1 µM
- GI50 [44]: 1.74 µM
- TGI [44]: 4.3 µM
- GI50 [45]: 4.21 µM
- TGI [45]: 25.5 µM
- GI50 [46]: 6.67 µM
- TGI [46]: 24.2 µM
- GI50 [47]: 1.73 µM
- TGI [47]: 3.86 µM
- GI50 [48]: 1.95 µM
- TGI [48]: 5.24 µM
- GI50 [49]: 1.96 µM
- TGI [49]: 4.77 µM
- GI50 [50]: 11.7 µM
- TGI [50]: 29.7 µM
- GI50 [51]: 2.45 µM
- TGI [51]: 7.27 µM
- GI50 [52]: 5.5 µM
- TGI [52]: 27.8 µM
- GI50 [53]: 5.96 µM
- TGI [53]: 54.7 µM
- GI50 [54]: 1.5 µM
- TGI [54]: 6.26 µM
- GI50 [55]: 2.18 µM
- TGI [55]: 7.9 µM
- GI50 [56]: 1.94 µM
- TGI [56]: 5.05 µM
- GI50 [57]: 2.89 µM
- TGI [57]: 9.91 µM
